Experimental data from ChEMBL document CHEMBL1201862, “PubChem BioAssay data set” (2004).
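Growth conditions: 96-well plates. Treatment: test compound, 48 hours, 5 concentrations. Analysis: linear interpolation between bracketing concentrations; unreached endpoints set to highest concentration. GI50 marks 50% less growth.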 Active and inactive are the calls of the source. No stated cut-off is given here; in the data, active = GI50 up to about 1.1 µM and inactive = higher.

Columns and labels:
Experiment in all cases: NCI-60 cell line screen, 48 h
[1] = test system: 786-0
[2] = test system: A549
[3] = test system: CAKI-1
[4] = test system: CCRF-CEM
[5] = test system: EKVX
[6] = test system: HOP-92
[7] = test system: HT-29
[8] = test system: KM12
[9] = test system: M14
[10] = test system: MCF7
[11] = test system: MDA-MB-231
[12] = test system: MDA-MB-435
[13] = test system: NCI-H522
[14] = test system: OVCAR-8
[15] = test system: RPMI-8226
[16] = test system: SK-MEL-28
[17] = test system: SK-MEL-5
[18] = test system: SW-620
[19] = test system: UACC-62

SMILES	GI50 [1]	GI50 [2]	GI50 [3]	GI50 [4]	GI50 [5]	GI50 [6]	GI50 [7]	GI50 [8]	GI50 [9]	GI50 [10]	GI50 [11]	GI50 [12]	GI50 [13]	GI50 [14]	GI50 [15]	GI50 [16]	GI50 [17]	GI50 [18]	GI50 [19]
Cc1cc(=O)oc2c(OS(C)(=O)=O)c(OS(C)(=O)=O)ccc12	> 100 µM (inactive)	> 100 µM (inactive)	> 100 µM (inactive)	> 100 µM (inactive)	> 100 µM (inactive)	> 100 µM (inactive)	> 100 µM (inactive)	> 100 µM (inactive)	> 100 µM (inactive)	> 100 µM (inactive)	> 100 µM (inactive)	> 100 µM (inactive)	> 100 µM (inactive)	> 100 µM (inactive)	> 100 µM (inactive)	> 100 µM (inactive)	> 100 µM (inactive)	> 100 µM (inactive)	> 100 µM (inactive)
O=C(O)CN1CCN(CC(=O)N2CCN(C(=O)OCc3ccccc3)CC2)CCN(CC(=O)O)CCN(CC(=O)N2CCN(C(=O)OCc3ccccc3)CC2)CC1	> 100 µM (inactive)	> 100 µM (inactive)	> 100 µM (inactive)	> 100 µM (inactive)	> 100 µM (inactive)	> 100 µM (inactive)	> 100 µM (inactive)	> 100 µM (inactive)	> 100 µM (inactive)	> 100 µM (inactive)	> 100 µM (inactive)	> 100 µM (inactive)	> 100 µM (inactive)	> 100 µM (inactive)	> 100 µM (inactive)	> 100 µM (inactive)	> 100 µM (inactive)	> 100 µM (inactive)	> 100 µM (inactive)
CN(C)N1C(=C(C#N)C#N)C(c2ccccc2)CC1C#N (stereo unspecified)	> 100 µM (inactive)	> 100 µM (inactive)	> 100 µM (inactive)	> 100 µM (inactive)	> 100 µM (inactive)	> 100 µM (inactive)	> 100 µM (inactive)	> 100 µM (inactive)	> 100 µM (inactive)	> 100 µM (inactive)	> 100 µM (inactive)	> 100 µM (inactive)	> 100 µM (inactive)	> 100 µM (inactive)	> 100 µM (inactive)	> 100 µM (inactive)	> 100 µM (inactive)	> 100 µM (inactive)	> 100 µM (inactive)
COc1ccc(/C=C/C(=O)c2ccc(OC(=O)/C=C/c3ccccc3)cc2)cc1	17 µM (inactive)	29.5 µM (inactive)	23.3 µM (inactive)	5.21 µM (inactive)	29 µM (inactive)	44.5 µM (inactive)	18.5 µM (inactive)	8.97 µM (inactive)	59.8 µM (inactive)	23.6 µM (inactive)	27.5 µM (inactive)	7.73 µM (inactive)	19.3 µM (inactive)	26.7 µM (inactive)	3.7 µM (inactive)	43.6 µM (inactive)	26 µM (inactive)	28.1 µM (inactive)	22.7 µM (inactive)
C=CCn1c2c(c3ccccc3c1=O)C(=O)c1ccccc1-2	22.4 µM (inactive)	> 100 µM (inactive)	> 100 µM (inactive)	> 100 µM (inactive)	> 100 µM (inactive)	> 100 µM (inactive)	> 100 µM (inactive)	> 72.9 µM (inactive)	> 100 µM (inactive)	> 100 µM (inactive)	> 85.3 µM (inactive)	> 87.3 µM (inactive)	> 100 µM (inactive)	> 88.9 µM (inactive)	> 25.6 µM (inactive)	> 100 µM (inactive)	43.8 µM (inactive)	73.6 µM (inactive)	> 78 µM (inactive)
Brc1ccc2c(-c3nc(-c4c[nH]c5ccccc45)cs3)c[nH]c2c1	21 µM (inactive)	9.59 µM (inactive)	30.9 µM (inactive)	27.4 µM (inactive)	12.7 µM (inactive)	43.1 µM (inactive)	38.6 µM (inactive)	10 µM (inactive)	51.6 µM (inactive)	28.8 µM (inactive)	47.1 µM (inactive)	34.6 µM (inactive)	48 µM (inactive)	36.4 µM (inactive)	12.1 µM (inactive)	> 27.8 µM (inactive)	22.1 µM (inactive)	35.4 µM (inactive)	27.5 µM (inactive)
Cc1nnc(Sc2nc(C#N)c(C#N)nc2Sc2nnc(C)s2)s1	4.13 µM (inactive)	22.1 µM (inactive)	2.32 µM (inactive)	2.1 µM (inactive)	19.3 µM (inactive)	2.14 µM (inactive)	4.18 µM (inactive)	23.8 µM (inactive)	8.2 µM (inactive)	5.82 µM (inactive)	15.9 µM (inactive)	12.7 µM (inactive)	1.57 µM (inactive)	2.47 µM (inactive)	2.5 µM (inactive)	10.5 µM (inactive)	20.6 µM (inactive)	1.67 µM (inactive)	17.2 µM (inactive)
C/C(=N\NC(=S)N1CCN(c2ccccn2)CC1)c1cccc2cccnc12	4.29 µM (inactive)	5.25 µM (inactive)	6.32 µM (inactive)	2.18 µM (inactive)	3.59 µM (inactive)	3.98 µM (inactive)	3.61 µM (inactive)	3.9 µM (inactive)	5.15 µM (inactive)	3.6 µM (inactive)	4.42 µM (inactive)	6.31 µM (inactive)	2.28 µM (inactive)	3.43 µM (inactive)	2.29 µM (inactive)	6.58 µM (inactive)	2.46 µM (inactive)	4.33 µM (inactive)	3.53 µM (inactive)
COc1cc2c(cc1O)CC[n+]1cc3c(OC)c(OC)ccc3cc1-2	> 100 µM (inactive)	> 100 µM (inactive)	> 100 µM (inactive)	> 100 µM (inactive)	> 100 µM (inactive)	87.7 µM (inactive)	> 100 µM (inactive)	76.7 µM (inactive)	> 100 µM (inactive)	> 100 µM (inactive)	> 100 µM (inactive)	> 100 µM (inactive)	> 100 µM (inactive)	> 100 µM (inactive)	81.8 µM (inactive)	> 100 µM (inactive)	51.1 µM (inactive)	> 100 µM (inactive)	> 100 µM (inactive)
[N-]=[N+]=NCC1OC(n2cnc3c(N)ncnc32)C2OC12 (stereo unspecified)	> 100 µM (inactive)	> 100 µM (inactive)	> 100 µM (inactive)	> 100 µM (inactive)	> 100 µM (inactive)	> 100 µM (inactive)	> 100 µM (inactive)	> 100 µM (inactive)	> 100 µM (inactive)	> 100 µM (inactive)	> 100 µM (inactive)	> 100 µM (inactive)	> 100 µM (inactive)	> 100 µM (inactive)	> 100 µM (inactive)	> 100 µM (inactive)	> 100 µM (inactive)	> 100 µM (inactive)	> 100 µM (inactive)
Cc1ccc([N+](=O)[O-])c2c(NCCNC(=O)c3cc(C(=O)NCCNc4ccnc5c(C)ccc([N+](=O)[O-])c45)n(C)n3)ccnc12	> 56 µM (inactive)	> 57.1 µM (inactive)	98.6 µM (inactive)	36 µM (inactive)	> 100 µM (inactive)	> 100 µM (inactive)	> 77.8 µM (inactive)	> 100 µM (inactive)	> 72.4 µM (inactive)	> 21.5 µM (inactive)	> 54 µM (inactive)	> 41.6 µM (inactive)	> 67.3 µM (inactive)	> 72.1 µM (inactive)	41.2 µM (inactive)	> 60.5 µM (inactive)	32.1 µM (inactive)	32.9 µM (inactive)	> 47.4 µM (inactive)
COc1cc(/C=C\c2nnc(/C=C\c3ccc(O)c(OC)c3)s2)ccc1O	3.85 µM (inactive)	3.13 µM (inactive)	4.62 µM (inactive)	2.18 µM (inactive)	3.74 µM (inactive)	4.79 µM (inactive)	7.31 µM (inactive)	2.2 µM (inactive)	2.11 µM (inactive)	0.69 µM (active)	4.94 µM (inactive)	0.495 µM (active)	1.67 µM (inactive)	3.78 µM (inactive)	1.98 µM (inactive)	5.35 µM (inactive)	1.16 µM (inactive)	1.74 µM (inactive)	2.48 µM (inactive)
c1cnc2c(c1)ccc1cccnc12	3.78 µM (inactive)	5.07 µM (inactive)	3.18 µM (inactive)	1.87 µM (inactive)	3.91 µM (inactive)	8.91 µM (inactive)	4.55 µM (inactive)	4.93 µM (inactive)	4.02 µM (inactive)	3.66 µM (inactive)	> 42.1 µM (inactive)	5.21 µM (inactive)	5.86 µM (inactive)	4.36 µM (inactive)	2.67 µM (inactive)	4.95 µM (inactive)	2.62 µM (inactive)	8.69 µM (inactive)	3.81 µM (inactive)
N/N=C(/C=C1\C(=O)Nc2ccccc21)c1ccccc1	25.3 µM (inactive)	29.6 µM (inactive)	24.3 µM (inactive)	13.2 µM (inactive)	32.9 µM (inactive)	24.5 µM (inactive)	19.9 µM (inactive)	11.1 µM (inactive)	15.5 µM (inactive)	18.9 µM (inactive)	20.3 µM (inactive)	4.15 µM (inactive)	27.9 µM (inactive)	24 µM (inactive)	21 µM (inactive)	26.7 µM (inactive)	10.5 µM (inactive)	15.9 µM (inactive)	24.6 µM (inactive)
